Experimental data taken from patent publication US4988687A, “Cephalosporin derivatives, and antibacterial agents” (priority 1986, dated 1991).
Where two headings read alike, the source gives them in different places.

How the values were obtained:
Ps. aeruginosa AKR17 = experiment: agar plate dilution method, MIC against Ps. aeruginosa AKR17; type: cell-based; conditions: Pseudomonas aeruginosa; Ps. aeruginosa AKR17; 10^6 CFU/ml, 37° C., 16 hours; read-out: Minimum Inhibitory Concentration (MIC)
Description: (§1) The in vitro antibacterial activities of the compounds of the present invention against various microorganisms, were measured by the following agar plate dilution method. One platinum loopfull of each test microorganism incubated overnight in Mueller Hinton broth, was inoculated to Mueller Hinton agar (inoculum size: 10^6 CFU/ml) Such culture media containing various antibiotics in various concentrations were prepared After incubation at 37° C. for 16 hours, the minimum inhibitory concentrations (MIC: μg/ml) were measured. As comparative compounds, cefotaxime, oeftazidime and the compounds disclosed in Example 2 of Japanese Unexamined Patent Publication No. 215690/1985 e.g. sodium 7-[2-(2-aminothiazol-4-yl)-2-ethoxyiminoacetamido]-3-(1-carboxylatemethylpyridinio-4-yl)thiomethyl-3-cephem-4-carboxylate (hereinafter referred to simply as "Reference Example A") were employed.

C. freundii GN346/16 = experiment: agar plate dilution method, MIC against C. freundii GN346/16; type: cell-based; conditions: Citrobacter freundii, read-out: Minimum Inhibitory Concentration (MIC)
Description: as §1

A. calcoaceticus No. 4 = experiment: agar plate dilution method, MIC against A. calcoaceticus No. 4; type: cell-based; conditions: Acinetobacter calcoaceticus, read-out: Minimum Inhibitory Concentration (MIC)
Description: as §1

E. cloacae 963 = experiment: agar plate dilution method, MIC against E. cloacae 963; type: cell-based; conditions: read-out: Minimum Inhibitory Concentration (MIC)
Description: as §1

P. vulgaris No. 33 = experiment: agar plate dilution method, MIC against P. vulgaris No. 33; type: cell-based; conditions: Proteus vulgaris; P. vulgaris No. 33 (lactamase-producing strain); 10^6 CFU/ml, 37° C., 16 hours; read-out: Minimum Inhibitory Concentration (MIC)
Description: as §1

S. aureus JS1 = experiment: agar plate dilution method, MIC against S. aureus JS1; type: cell-based; conditions: Staphylococcus aureus, read-out: Minimum Inhibitory Concentration (MIC)
Description: as §1

M. morganii GN5407 = experiment: agar plate dilution method, MIC against M. morganii GN5407; type: cell-based; conditions: Morganella morganii; M. morganii GN5407 (lactamase-producing strain); 10^6 CFU/ml, 37° C., 16 hours; read-out: Minimum Inhibitory Concentration (MIC)
Description: as §1

S. marcescens IAM 1184 = experiment: agar plate dilution method, MIC against S. marcescens IAM 1184; type: cell-based; conditions: Serratia marcescens, IAM1184; S. marcescens IAM 1184; 10^6 CFU/ml, 37° C., 16 hours; read-out: Minimum Inhibitory Concentration (MIC)
Description: as §1

E. coli NIHJ JC2 = experiment: agar plate dilution method, MIC against E. coli NIHJ JC2; type: cell-based; conditions: Escherichia coli, NIHJJC2; E. coli NIHJ JC2; 10^6 CFU/ml, 37° C., 16 hours; read-out: Minimum Inhibitory Concentration (MIC)
Description: as §1

K. pneumoniae PCI-602 = experiment: agar plate dilution method, MIC against K. pneumoniae PCI-602; type: cell-based; conditions: Klebsiella pneumoniae, PCI602, 16 h, read-out: Minimum Inhibitory Concentration (MIC)
Description: as §1

C. freundii GN346 = experiment: agar plate dilution method, MIC against C. freundii GN346; type: cell-based; conditions: Citrobacter freundii; C. freundii GN346 (lactamase-producing strain); 10^6 CFU/ml, 37° C., 16 hours; read-out: Minimum Inhibitory Concentration (MIC)
Description: as §1

E. cloacae Nek 39 = experiment: agar plate dilution method, MIC against E. cloacae Nek 39; type: cell-based; conditions: Enterobacter cloacae, NEK39; E. cloacae Nek 39 (lactamase-producing strain); 10^6 CFU/ml, 37° C., 16 hours; read-out: Minimum Inhibitory Concentration (MIC)
Description: as §1

Ps. aeruginosa IFO3445 = experiment: agar plate dilution method, MIC against Ps. aeruginosa IFO3445; type: cell-based; conditions: Pseudomonas aeruginosa, IFO3445, 16 h, read-out: Minimum Inhibitory Concentration (MIC)
Description: as §1

S. aureus BB5703 = experiment: agar plate dilution method, MIC against S. aureus BB5703; type: cell-based; conditions: Staphylococcus aureus, BB5703, 16 h, read-out: Minimum Inhibitory Concentration (MIC)
Description: as §1

M. luteus ATCC9341 = experiment: agar plate dilution method, MIC against M. luteus ATCC9341; type: cell-based; conditions: Micrococcus luteus; M. luteus ATCC9341; 10^6 CFU/ml, 37° C., 16 hours; read-out: Minimum Inhibitory Concentration (MIC)
Description: as §1

S. marcescens No. 16-2 = experiment: agar plate dilution method, MIC against S. marcescens No. 16-2; type: cell-based; conditions: Serratia marcescens, NO.162, 16 h, read-out: Minimum Inhibitory Concentration (MIC)
Description: as §1

Ps. maltophilia GN 12873 = experiment: agar plate dilution method, MIC against Ps. maltophilia GN 12873; type: cell-based, Pseudomonas maltophilia; conditions: Stenotrophomonas maltophilia, GN12873; Ps. maltophilia GN 12873 (lactamase-producing strain); 10^6 CFU/ml, 37° C., 16 hours; read-out: Minimum Inhibitory Concentration (MIC)
Description: as §1

S. aureus 209P NIHJ-JC1 = experiment: agar plate dilution method, MIC against S. aureus 209P NIHJ-JC1; type: cell-based; conditions: Staphylococcus aureus; S. aureus 209P NIHJ-JC1; 10^6 CFU/ml, Mueller Hinton agar, 37° C., 16 hours; read-out: Minimum Inhibitory Concentration (MIC)
Description: as §1

E. coli GN5482 = experiment: agar plate dilution method, MIC against E. coli GN5482; type: cell-based; conditions: Escherichia coli; E. coli GN5482 (lactamase-producing strain); 10^6 CFU/ml, 37° C., 16 hours; read-out: Minimum Inhibitory Concentration (MIC)
Description: as §1

K. oxytoca GN10650 = experiment: agar plate dilution method, MIC against K. oxytoca GN10650; type: cell-based; conditions: Klebsiella oxytoca; K. oxytoca GN10650 (lactamase-producing strain); 10^6 CFU/ml, 37° C., 16 hours; read-out: Minimum Inhibitory Concentration (MIC)
Description: as §1

P. vulgaris HX-19 = experiment: agar plate dilution method, MIC against P. vulgaris HX-19; type: cell-based; conditions: Proteus vulgaris, HX19, 16 h, read-out: Minimum Inhibitory Concentration (MIC)
Description: as §1

Ps. aeruginosa AK 109 = experiment: agar plate dilution method, MIC against Ps. aeruginosa AK 109; type: cell-based; conditions: Pseudomonas aeruginosa, read-out: Minimum Inhibitory Concentration (MIC)
Description: as §1

E. coli CSH(RE45) = experiment: agar plate dilution method, MIC against E. coli CSH(RE45); type: cell-based; conditions: Escherichia coli, 16 h, read-out: Minimum Inhibitory Concentration (MIC)
Description: as §1

S. epidermidis IAM12012 = experiment: agar plate dilution method, MIC against S. epidermidis IAM12012; type: cell-based; conditions: Staphylococcus epidermidis, read-out: Minimum Inhibitory Concentration (MIC)
Description: as §1

E. coli CSH2 (RK1) = experiment: agar plate dilution method, MIC against E. coli CSH2 (RK1); type: cell-based; conditions: Escherichia coli, 16 h, read-out: Minimum Inhibitory Concentration (MIC)
Description: as §1

K. pneumoniae No. 42 = experiment: agar plate dilution method, MIC against K. pneumoniae No. 42; type: cell-based; conditions: Klebsiella pneumoniae; K. pneumoniae No. 42 (lactamase-producing strain); 10^6 CFU/ml, 37° C., 16 hours; read-out: Minimum Inhibitory Concentration (MIC)
Description: as §1

Ps. cepacia 23 = experiment: agar plate dilution method, MIC against Ps. cepacia 23; type: cell-based, Pseudomonas cepacia; conditions: Burkholderia cepacia, 23, 16 h, read-out: Minimum Inhibitory Concentration (MIC)
Description: as §1

| SMILES | MIC (Ps. aeruginosa AKR17) | MIC (P. vulgaris No. 33) | MIC (M. morganii GN5407) | MIC (S. marcescens IAM 1184) | MIC (E. coli NIHJ JC2) | MIC (K. pneumoniae PCI-602) | MIC (C. freundii GN346) | MIC (E. cloacae Nek 39) | MIC (Ps. aeruginosa IFO3445) | MIC (S. aureus BB5703) | MIC (M. luteus ATCC9341) | MIC (S. marcescens No. 16-2) | MIC (Ps. maltophilia GN 12873) | MIC (S. aureus 209P NIHJ-JC1) | MIC (E. coli GN5482) | MIC (K. oxytoca GN10650) | MIC (P. vulgaris HX-19) | MIC (E. coli CSH(RE45)) | MIC (E. coli CSH2 (RK1)) | MIC (K. pneumoniae No. 42) | other results |
| --- | --- | --- | --- | --- | --- | --- | --- | --- | --- | --- | --- | --- | --- | --- | --- | --- | --- | --- | --- | --- | --- |
| Nc1nc(/C(=N/Oc2ccccc2)C(=O)NC2C(=O)N3C(C(=O)[O-])=C(CSc4cc[n+](CC(=O)O)cc4)CSC23)cs1 (stereo not drawn) [Example 7, sodium 7-[2-(2-aminothiazol-4-yl)-2-phenoxyiminoacetamido]-3-(1-carboxylatemethylpyridinio-4-yl)thiomethYl-3-cephem-4-carboxylate (syn-isomer)] | > 100 µg/mL | 0.78 µg/mL | 0.78 µg/mL | 0.78 µg/mL | 0.78 µg/mL | 0.025 µg/mL | 50 µg/mL | 12.5 µg/mL | 12.5 µg/mL | 3.12 µg/mL | 0.1 µg/mL | 12.5 µg/mL | > 100 µg/mL | 0.39 µg/mL | 1.56 µg/mL | 25 µg/mL | < 6 ng/mL | 0.78 µg/mL | 0.78 µg/mL | 3.12 µg/mL | MIC (C. freundii GN346/16; GN346, 16 h): 1.56 µg/mL; MIC (A. calcoaceticus No. 4; NO.4, 16 h): 3.12 µg/mL; MIC (E. cloacae 963; Enterobacter cloacae, 963, 16 h): 3.12 µg/mL; MIC (S. aureus JS1; JS1, 16 h): 12.5 µg/mL; MIC (Ps. aeruginosa AK 109; AK109, Ps. aeruginosa AK 109, 10^6 CFU/ml, 37° C., 16 hours): 25 µg/mL; MIC (S. epidermidis IAM12012; IAM12012, 16 h): 0.2 µg/mL; MIC (Ps. cepacia 23): 3.12 µg/mL |
| CCON=C(C(=O)NC1C(=O)N2C(C(=O)[O-])=C(CSc3cc[n+](CC(=O)O)cc3)CSC12)c1csc(N)n1 (stereo not drawn) [Reference Example A, sodium 7-[2-(2-aminothiazol-4-yl)-2-ethoxyiminoacetamido]-3-(1-carboxylatemethylpyridinio-4-yl)thiomethyl-3-cephem-4-carboxylate, reference compound] | > 100 µg/mL | 0.05 µg/mL | 0.05 µg/mL | 0.05 µg/mL | 0.05 µg/mL | < 0.006 µg/mL | 25 µg/mL | 1.56 µg/mL | 6.25 µg/mL | 3.12 µg/mL | 0.1 µg/mL | 6.25 µg/mL | > 100 µg/mL | 0.39 µg/mL | 0.2 µg/mL | 3.12 µg/mL | < 6 ng/mL | 0.05 µg/mL | 0.025 µg/mL | 0.05 µg/mL | MIC (C. freundii GN346/16; C. freundii GN346/16, 10^6 CFU/ml, 37° C., 16 hours): 0.1 µg/mL; MIC (A. calcoaceticus No. 4; A. calcoaceticus No. 4, 10^6 CFU/ml, 37° C., 16 hours): 100 µg/mL; MIC (E. cloacae 963; Enterobacter cloacae, E. cloacae 963, 10^6 CFU/ml, 37° C., 16 hours): 0.1 µg/mL; MIC (S. aureus JS1; S. aureus JS1 (methicilline resistant; lactamase-producing strain), 10^6 CFU/ml, 37° C., 16 hours): 100 µg/mL; MIC (Ps. aeruginosa AK 109; AK109, 16 h): 12.5 µg/mL; MIC (S. epidermidis IAM12012; S. epidermidis IAM12012, 10^6 CFU/ml, 37° C., 16 hours): 0.05 µg/mL; MIC (Ps. cepacia 23): 6.25 µg/mL |
